EC50, IC50 and outcome data for 52 compounds are collected here from PubChem BioAssay AID179 (DTP/NCI, 2004).

Values joined by “and” are separate entries in the source; they are usually repeats but may differ in a detail not shown here. Identical values can stand only once. Active and inactive are the calls of the source.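 Rule for the calls: active = compounds giving half or more protection of infected cells from virus-caused growth loss, again on retest; inactive = the rest.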

The test system of this assay is CEM cells HIV-1 protection, formazan growth assay. Kind of assay: NCI AIDS Antiviral Assay. As to conditions: for IC50: measured here: growth of uninfected CEM cells. An outline of the steps: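 Screen of anti-HIV-1 activity in human CEM cells using a formazan-based growth measurement at five drug concentrations. Hits with 50% or greater protection were repeated, and confirmation required reproducible complete protection.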

For orientation: EC50 means the midpoint of the concentration-response curve. For orientation: IC50 means the concentration at which inhibition is half-maximal. Read a low IC50 as greater potency in that assay. Regarding `O=C1N=C(c2ccccc2)O/C1=C\c1ccccc1`, the EC50 was over 200 µM and the IC50 was over 200 µM.

Consider `COP(=O)(OC)OC=C(Cl)Cl`, for which the EC50 was over 200 µM and the IC50 is over 200 µM. Turning to `C=C1CN(S(=O)(=O)c2ccc(C)cc2)CCCN(CC(C)(C)C)CCCN(S(=O)(=O)c2ccc(C)cc2)C1`, the EC50 was over 200 µM and the IC50 was 10.5 µM.

Regarding `N#Cc1n[nH]n(C2CCCCC2)c1=O`, the EC50 is over 200 µM and the IC50 is over 200 µM. Turning to `Cn1ncc2c(c1=O)Nc1ccccc1S2(=O)=O`, the EC50 was over 112 µM and the IC50 is over 112 µM. Turning to `O=C(O)C12C3CCC(C3)C1(C(=O)O)C1CCC2C1` (stereo unspecified), the EC50 is over 1000 µM and the IC50 was over 1000 µM. Regarding `CC(C)(O)CCC(=O)[C@](C)(O)[C@H]1[C@H](O)C[C@@]2(C)[C@@H]3CC=C4[C@@H](C[C@@H](O)[C@@H](O)C4(C)C)[C@]3(C)C(=O)C[C@]12C`, the EC50 is over 200 µM and the IC50 was over 200 µM. On to `Cc1ccc(N=Nc2ccc(O)c(CN(C)C)c2)cc1C`, for which the EC50 is over 200 µM and the IC50 was 17.4 µM. In the case of `Cc1c(CN2CCOCC2)c(CN2CCOCC2)c(C)n1-c1ccc(Cl)cn1`, the EC50 was over 200 µM and the IC50 was over 200 µM. Turning to `O=[N+]([O-])c1cccc(C2=NON(c3ncccn3)C3N=CC=CN23)c1` (stereo unspecified), the EC50 is over 5.89 µM and the IC50 was over 5.89 µM. For `NC(=N\N=C/c1ccc(Cl)cc1Cl)/C(N)=N\N=C/c1ccc(Cl)cc1Cl`, the result was inactive. Turning to `O=c1oc2ccccc2c(O)c1C(c1ccc(OCc2ccccc2)cc1)c1c(O)c2ccccc2oc1=O`, the EC50 is over 200 µM and the half-inhibitory concentration (IC50) came to 30.2 µM. With `COP(=O)(OC)C(=O)N1N(c2ccc([N+](=O)[O-])cc2)C(=O)C(C)NC1(NNc1ccc([N+](=O)[O-])cc1)P(=O)(OC)OC` (stereo unspecified), the EC50 is over 107 µM and the IC50 worked out at 56.2 µM. Take `CCN(CC)CCCCC1CCN(CC(=O)N2c3ccccc3NC(=O)CC2C)CC1` (stereo unspecified): the EC50 was over 251 µM and the IC50 was determined as 38.9 µM. Take `CN(C)CC1CCC(CN(C)C)C1=NO` (stereo unspecified): the result was inactive. The same measure, in the same setting: to `C[C@]12CCC3(CC1C(=O)CC[C@@H]2OCc1ccccc1)OCCO3` (stereo partly specified) belongs “active”.

For `CC1(C)OC(=O)c2cc(C(=CCCO)c3cc(Cl)c4c(c3)C(=O)OC(C)(C)O4)cc(Cl)c2O1`, the EC50 was over 200 µM and the IC50 was determined as 28.8 µM. Consider `OCC1CCCCN1Cc1nc2ccc(Cl)cc2[nH]1` (stereo unspecified), for which the EC50 was over 200 µM and the IC50 was determined as 195 µM. In the same order, the values of `COC(=O)/C=C/c1cc2c(cc1-c1c(C(=O)O)cc(OC)c(OC)c1OC)OCO2` are over 603 µM and over 603 µM. On to `CC1CCC(O)/C=C/C(=O)OC(C)C(O)/C=C/C(=O)O1` (stereo unspecified), for which the EC50 is over 200 µM and the IC50 is 10 µM.

In the case of `C=CC(=O)N1C/C(=C\c2ccccc2)C(=O)/C(=C/c2ccccc2)C1`, the EC50 is over 15.8 µM and the IC50 worked out at 0.933 µM.

As to `Clc1c(Cl)c2c(Cl)c(Cl)c1C[P+](c1ccccc1)(c1ccccc1)CC[P+](c1ccccc1)(c1ccccc1)Cc1c(Cl)c(Cl)c(c(Cl)c1Cl)C[P+](c1ccccc1)(c1ccccc1)CC[P+](c1ccccc1)(c1ccccc1)C2`, the EC50 is over 66.1 µM and the IC50 turned out to be 4.68 µM. Turning to `CC1(C(=O)Nc2ccc3cc4ccccc4cc3c2)CC2(C)CC(C)(C1)C(O)NC2=O` (stereo unspecified), the result was inactive. With `CN1C(=O)C(O)C[C@@H]1c1ccccc1` (stereo partly specified), the outcome was inactive. Take `Cc1ccc2c3c4c(ccc13)C(C)(C)OC4=C(C(C)C)C2=O`: the EC50 was over 200 µM and the IC50 was 15.8 µM. For the compound `CCCC[n+]1ccn(-c2nc3ccccc3n2C)c1`, the result was inactive. As for `CN=S(=O)(C[C@]1(O)CC2OC1C1OC(C)(C)OC21)c1ccccc1` (stereo partly specified), the EC50 is over 708 µM and the IC50 was over 708 µM. As for `NC1=NS(=O)(=O)N=C(N)C1=Cc1ccc([N+](=O)[O-])o1`, the EC50 was over 871 µM and the IC50 was 4.9 µM. With `O=c1c(-c2ccc(Cl)cc2)nnc2n(Cc3ccccc3)c3ccccc3n12`, the EC50 was over 200 µM and the IC50 was over 200 µM. For the compound `COc1c(C(=O)c2ccc([N+](=O)[O-])cc2)cc(C(C)(C)C)cc1C(C)(C)C`, the result was inactive.

With `CCOC(=O)N1CCc2cc(OC)c(OC)cc2/C1=C\c1ccc(OC)c(OC)c1`, the outcome was inactive.

Turning to `CC1Nc2c(ccc3ncccc23)C(=O)N1Nc1ccccc1` (stereo unspecified), the EC50 was over 83.2 µM and the IC50 is 60.3 µM. Turning to `CN(C(=O)C12C3(C(=O)O)C4C5(C(=O)O)C3C1(C(=O)O)C5C42C(=O)O)C(C)(C)C` (stereo unspecified), the EC50 was over 200 µM and the IC50 is over 200 µM. Regarding `c1ccc(COC2(OCc3ccccc3)CC3OC2C2NN=NC32)cc1` (stereo unspecified), the EC50 is over 141 µM and the IC50 came to 9.77 µM. Take `CCSc1n/c(=C\c2ccco2)c2nncn12`: the EC50 is over 100 µM and the IC50 was over 100 µM. Consider `COc1ccccc1N/C(=C\C(=O)C(=O)NC12CC3CC(CC(C3)C1)C2)c1ccccc1`, for which the EC50 was over 200 µM and the concentration for half-maximal inhibition (IC50) is over 200 µM. For the compound `CCCCOC(=O)c1ccc(N)cc1`, the EC50 is over 200 µM. Regarding `O=C1NC(=S)S/C1=C\c1ccc(Cl)cc1`, the EC50 is over 74.1 µM and the IC50 was found to be 66.1 µM. Take `NNC(=O)NNC(=O)NN`: the EC50 is over 200 µM and the IC50 is over 200 µM. With `COCCCNC(=O)C1C(=O)C(=O)N(CCCOC)C1=O` (stereo unspecified), the result was inactive. `O=C(c1ccccc1)N1CCCCC(Cl)C1=O` (stereo unspecified): the EC50 is over 1000 µM and the IC50 is over 1000 µM. In the case of `CCCCN=Cc1c(O)c(O)c(C(C)C)c2cc(C)c(-c3c(C)cc4c(C(C)C)c(O)c(O)c(C=NCCCC)c4c3O)c(O)c12`, the result was inactive. Turning to `CN(C(=O)C12C3C4C5C3C1(C(=O)C13C6C7C8C6C1C8C73)C5C42)C(C)(C)C` (stereo unspecified), the EC50 was over 135 µM and the half-maximal inhibitory concentration (IC50) was over 135 µM. `CCOC(=O)c1c(-c2ccc(OC)cc2)c(C#N)c(=S)n(C2OC(COC(C)=O)C(OC(C)=O)C(OC(C)=O)C2OC(C)=O)c1C` (stereo unspecified): the EC50 is over 200 µM; the IC50 was 42.7 µM and 33.9 µM.

In the case of `C=C(c1ccccc1)c1ccccc1-c1cc(-c2ccccc2)cc(-c2ccccc2)n1`, the EC50 is over 200 µM and the IC50 is 25.1 µM. Turning to `CCC1(CC)C(=O)NN(C(=O)c2ccccc2)C1=O`, the EC50 was over 200 µM and the concentration for half-maximal inhibition (IC50) is over 200 µM.

In the case of `CCOc1ccc(N=Cc2ccc3cc(C)ccc3n2)cc1`, the outcome was inactive. In the case of `Cn1cc(C(N)=O)ccc1=N`, the EC50 was over 200 µM and the IC50 was over 200 µM.

For the compound `COc1cc(C2c3cc4c(cc3OC(N3CCOCC3)C2C)OCO4)cc(OC)c1OC(C)=O` (stereo unspecified), the EC50 is over 200 µM and the IC50 is 3.31 µM. As to `C=CCOc1ccc(C2C(C(=O)OCC)C(=O)CC(C)(O)C2C(=O)OCC)cc1OC` (stereo unspecified), the EC50 was over 200 µM and the IC50 is over 200 µM. In the case of `O=C(N/N=C\c1ccccc1)c1ccccc1Nc1ccccc1C(=O)N/N=C/c1ccccc1`, the EC50 is 26.9 µM and the IC50 was over 200 µM. Regarding `O=c1c2ccccc2nc(/C=C(\O)c2ccccc2)n1-c1ccccc1Cl`, the outcome was inactive.
